Common to all, as to type: cell-based
The test system of data set [1] is SREBP-2 transcriptional activity (SREBP2 cleavage) in HepG2_LSSprom cells. The experiment in a line: Luciferase reporter driven by a SREBP-2 specific promoter in HepG2_LSSprom cells. Conditions: for IC50: read-out: SREBP2 Cleavage (IC50 μM) 24 h. Summed up: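 HepG2_LSSprom cells dosed at 0.625-10 μM in serum-free medium for 6 h (or 24 h), then luciferase luminescence read. Signal normalized to vehicle (100%); IC50 by four-parameter nonlinear fit; five independent experiments, triplicate wells.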
Background: A reporter such as luciferase makes a cellular process visible.

Data set [2] deals with HepG2_LSSprom cells. The experiment in a line: Cytotoxicity assay (LDH release) in HepG2_LSSprom cells. An outline of the steps:
(§1)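 HepG2_LSSprom cells exposed to compound at 0.625–10 μM in serum-free medium for 6 h or 24 h. Medium LDH measured colorimetrically at 490 nm; release expressed as % of lysis control after vehicle subtraction, negatives set to 0; five independent experiments, triplicate wells, mean±SEM.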
For orientation: LDH leaks from cells whose membrane has failed.

Assay in data set [3]: as above
The settings on record: human, HepG2 LSSprom cells, 24 h treatment, LDH release. An outline of the steps: as §1

Setting [4] is: 24 h, 24 h treatment, HepG2_LSSprom cells.

Where a name gives a salt, the structure may show the parent alone. Read-outs that look alike come from different tables or passages of the source.

As usually defined, the IC50 is the point on the concentration scale where inhibition reaches its midpoint. For the compound `CC1(N)CCCN(C(=O)c2ccc(-c3cc(-c4ccnc(C(C)(C)C)c4)cs3)c(Cl)c2)C1` (single isomer, unassigned) [Compound 95b], the IC50 in data set [1] (24 h treatment, HepG2_LSSprom cells) is 0.65 µM; in data set [2] (24 h treatment, LDH release), above 10 µM.
`O=C(c1ccc(-c2csc(-c3cccc4[nH]ccc34)n2)c(Cl)c1)N1CCCCC1` [Compound 4, [3-chloro-4-[2-(1H-indol-4-yl)thiazol-4-yl]phenyl]-(1-piperidyl)methanone]: in data set [1] (5 μM, HepG2_LSSprom cells, medium without FBS), the “SREBP2 Cleavage (5 μM) (% Inh)” value is 48 % Inh. For the same compound, the “Cytotoxicity (5 μM) %” value in data set [2] (5 μM, LDH release relative to lysis control) was 1%.
With `CC(C)(C)c1cc(-c2cc(-c3ccc(C(=O)N4CCCC5(CCNC5=O)C4)cc3Cl)cs2)ccn1` (stereo not shown) [Compound 83, 7-{4-[5-(2-tert-butylpyridin-4-yl)thiophen-3-yl]-3-chlorobenzoyl}-2,7-diazaspiro[4.5]decan-1-one], the IC50 in data set [1] (setting [4]) is 0.47 µM. The IC50 at 24 h in data set [3] is above 10 µM.
For `CC(C)(C)c1cc(-c2cc(-c3ccc(C(=O)N4CCN5CCCC5C4)cc3Cl)cs2)ccn1` (stereo not shown) [Compound 84, 2-tert-butyl-4-[4-(2-chloro-4-{octahydropyrrolo[1,2-a]piperazine-2-carbonyl}phenyl)thiophen-2-yl]pyridine] the same measures were above 3 µM and above 10 µM.
On to `CC(C)(C)c1cc(-c2nc(-c3ccc(C(=O)N4CCCC(N)C4)cc3Cl)c[nH]2)ccn1` (stereo not shown) [Compound 85, 1-{4-[2-(2-tert-butylpyridin-4-yl)-1H-imidazol-4-yl]-3-chlorobenzoyl}piperidin-3-amine], for which the IC50 in data set [1] (24 h) is above 3 µM. The IC50 at 24 h in data set [3] is above 10 µM.
With `CC(C)(C)c1cc(-c2csc(-c3ccc(C(=O)N4CCC(O)CC4)cc3Cl)c2)ccn1` [Compound 86, 1-{4-[4-(2-tert-butylpyridin-4-yl)thiophen-2-yl]-3-chlorobenzoyl}piperidin-4-ol], the IC50 in data set [1] (setting [4]) amounted to 0.06 µM. In data set [3], the IC50 at 24 h is above 10 µM.
As for `Cc1sc(-c2ccc(C(=O)N3CCC[C@H](N)C3)cc2Cl)cc1-c1ccnc(C(C)(C)C)c1` [Compound 87a, (3S)-1-{4-[4-(2-tert-butylpyridin-4-yl)-5-methylthiophen-2-yl]-3-chlorobenzoyl}piperidin-3-amine], the IC50 in data set [1] (setting [4]) was above 10 µM. For the same compound, the IC50 at 24 h in data set [3] is above 10 µM.
For `Cc1sc(-c2ccc(C(=O)N3CCC[C@@H](N)C3)cc2Cl)cc1-c1ccnc(C(C)(C)C)c1` [Compound 87b, (3R)-1-{4-[4-(2-tert-butylpyridin-4-yl)-5-methylthiophen-2-yl]-3-chlorobenzoyl}piperidin-3-amine], in data set [1] (setting [4]), the half-inhibitory concentration (IC50) was above 10 µM. For the same compound, the IC50 at 24 h in data set [3] was above 10 µM.
Regarding `CC(C)(C)c1cc(-c2csc(-c3ccc(C(=O)N4CCC(C(=O)O)CC4)cc3Cl)c2)ccn1` [Compound 88, 1-{4-[4-(2-tert-butylpyridin-4-yl)thiophen-2-yl]-3-chlorobenzoyl}piperidine-4-carboxylic acid], in data set [1] (setting [4]), the IC50 is 2.8 µM. For the same compound, in data set [3], the IC50 at 24 h was above 10 µM.
For `CC(C)(C)c1cc(-c2csc(-c3ccc(C(=O)N4CCCC(O)C4)cc3Cl)c2)ccn1` (stereo not shown) [Compound 89, 1-{4-[4-(2-tert-butylpyridin-4-yl)thiophen-2-yl]-3-chlorobenzoyl}piperidin-3-ol] the same measures were 0.037 µM and above 10 µM.
For `CC(C)(C)c1cc(-c2csc(-c3ccc(C(=O)N4CCC[C@@H](O)C4)cc3Cl)c2)ccn1` [Compound 89a, (R)-(4-(4-(2-(tert-butyl)pyridin-4-yl)thiophen-2-yl)-3-chlorophenyl)(3-hydroxypiperidin-1-yl)methanone] the same measures were 0.03 µM and above 10 µM.
For `CC(C)(C)c1cc(-c2csc(-c3ccc(C(=O)N4CCC[C@H](O)C4)cc3Cl)c2)ccn1` [Compound 89b, (S)-(4-(4-(2-(tert-butyl)pyridin-4-yl)thiophen-2-yl)-3-chlorophenyl)(3-hydroxypiperidin-1-yl)methanone] the same measures were 0.02 µM and above 10 µM.
Regarding `CC(C)(C)OC(=O)NC1CCN(C(=O)c2ccc(-c3csc(-c4ccnc(C(C)(C)C)c4)c3)c(Cl)c2)C1` (stereo not shown) [Compound 90], in data set [1] (setting [4]), the IC50 worked out at 0.37 µM. For the same compound, the IC50 at 24 h in data set [3] is above 10 µM.
Regarding `CC(C)(C)c1cc(-c2csc(-c3ccc(C(=O)N4CCCC(C(=O)O)C4)cc3Cl)c2)ccn1` (stereo not shown) [Compound 91], the IC50 in data set [1] (setting [4]) is 0.72 µM. In addition, the IC50 at 24 h in data set [3] is above 10 µM.
For `CC(C)(C)c1cc(-c2csc(-c3ccc(C(=O)N4CCc5nc[nH]c5C4)cc3Cl)c2)ccn1` [Compound 92, 2-tert-butyl-4-[5-(2-chloro-4-{3H,4H,5H,6H,7H-imidazo[4,5-c]pyridine-5-carbonyl}phenyl)thiophen-3-yl]pyridine] the same measures were 0.74 µM and above 10 µM.
For `CC(C)(C)c1cc(-c2csc(-c3ccc(C(=O)N4CCNC(=O)C4)cc3Cl)c2)ccn1` [Compound 93, 4-{4-[4-(2-tert-butylpyridin-4-yl)thiophen-2-yl]-3-chlorobenzoyl}piperazin-2-one] the same measures were 0.41 µM and above 10 µM.
For `CC(C)(C)c1cc(-c2csc(-c3ccc(C(=O)N4CCCC(N5CCNC5=O)C4)cc3Cl)c2)ccn1` (stereo not shown) [Compound 94, 1-[1-{4-[4-(2-tert-butylpyridin-4-yl)thiophen-2-yl]-3-chlorobenzoyl}piperidin-3-yl]imidazolidin-2-one] the same measures were 0.52 µM and above 10 µM.
Turning to `CC1(N)CCCN(C(=O)c2ccc(-c3cc(-c4ccnc(C(C)(C)C)c4)cs3)c(Cl)c2)C1` (stereo not shown) [Compound 95, 1-{4-[4-(2-tert-butylpyridin-4-yl)thiophen-2-yl]-3-chlorobenzoyl}-3-methylpiperidin-3-amine], the IC50 in data set [1] (setting [4]) came to 0.42 µM. In data set [3], the 50% inhibitory concentration (IC50) at 24 h is above 10 µM.
For `CC(C)(C)c1cc(-c2csc(-c3ccc(C(=O)N4CC[C@@H](N)C4)cc3Cl)c2)ccn1` [Compound 96a, (3R)-1-{4-[4-(2-tert-butylpyridin-4-yl)thiophen-2-yl]-3-chlorobenzoyl}pyrrolidin-3-amine] the same measures were 1.4 µM and above 10 µM.
For `CC(C)(C)c1cc(-c2csc(-c3ccc(C(=O)N4CC[C@H](N)C4)cc3Cl)c2)ccn1` [Compound 96b, (3S)-1-{4-[4-(2-tert-butylpyridin-4-yl)thiophen-2-yl]-3-chlorobenzoyl}pyrrolidin-3-amine] the same measures were 0.6 µM and above 10 µM.
For `CC(C)(C)c1cc(-c2csc(-c3ccc(C(=O)N4CCCc5ncccc54)cc3Cl)c2)ccn1` [Compound 97, 1-{4-[4-(2-tert-butylpyridin-4-yl)thiophen-2-yl]-3-chlorobenzoyl}-1,2,3,4-tetrahydro-1,5-naphthyridine] the same measures were 0.17 µM and above 3 µM.
As to `CC(C)(C)c1cc(-c2nc(-c3ccc(C(=O)N4CCC(O)CC4)cc3Cl)c[nH]2)ccn1` [Compound 98, 1-{4-[2-(2-tert-butylpyridin-4-yl)-1H-imidazol-4-yl]-3-chlorobenzoyl}piperidin-4-ol], in data set [1] (24 h), the IC50 was 0.99 µM. Also, in data set [3], the IC50 at 24 h is above 10 µM.
For `COC1CCCN(C(=O)c2ccc(-c3cc(-c4ccnc(C(C)(C)C)c4)cs3)c(Cl)c2)C1` (stereo not shown) [Compound 99, 2-tert-butyl-4-{5-[2-chloro-4-(3-methoxypiperidine-1-carbonyl)phenyl]thiophen-3-yl}pyridine] the same measures were 0.051 µM and above 10 µM.
For `CC1(O)CCN(C(=O)c2ccc(-c3cc(-c4ccnc(C(C)(C)C)c4)cs3)c(Cl)c2)CC1` [Compound 100, 1-{4-[4-(2-tert-butylpyridin-4-yl)thiophen-2-yl]-3-chlorobenzoyl}-4-methylpiperidin-4-ol], the IC50 in data set [1] (setting [4]) came out at 0.74 µM. Besides, in data set [3], the IC50 at 24 h is above 10 µM.
For `CC(C)(C)c1cc(-c2csc(-c3ccc(C(=O)N4CCC[C@](C)(O)C4)cc3Cl)c2)ccn1` [Compound 101a, [4-[4-(2-tert-butyl-4-pyridyl)-2-thienyl]-3-chloro-phenyl]-[(3S)-3-hydroxy-3-methyl-1-piperidyl] methanone hydrochloride] the same measures were 0.15 µM and above 10 µM.
For `CC(C)(C)c1cc(-c2csc(-c3ccc(C(=O)N4CCC[C@](C)(O)C4)cc3Cl)c2)ccn1` [Compound 101b, (3S)-1-{4-[4-(2-tert-butylpyridin-4-yl)thiophen-2-yl]-3-chlorobenzoyl}-3-methylpiperidin-3-ol] the same measures were 0.025 µM and above 10 µM.
For `CC(C)CCn1nccc1-c1cc(-c2ccc(C(=O)N3CCOCC3)cc2Cl)cs1` [Compound 102, [3-chloro-4-[5-(2-isopentylpyrazol-3-yl)-3-thienyl]phenyl]-morpholino-methanone] the same measures were 0.44 µM and above 10 µM.
`CC(C)CCn1nccc1-c1cc(-c2ccc(C(=O)N3CCC(F)(F)CC3)cc2Cl)cs1` [Compound 103, [3-chloro-4-[5-(2-isopentylpyrazol-3-yl)-3-thienyl]phenyl]-(4,4-difluoro-1-piperidyl)methanone]: in data set [1] (setting [4]), the IC50 amounted to 0.69 µM. In addition, the IC50 at 24 h in data set [3] was above 10 µM.
For `CC(C)CCn1nccc1-c1csc(-c2ccc(C(=O)N3CCCC(O)C3)cc2Cl)c1` (stereo not shown) [Compound 104, [3-chloro-4-[4-(2-isopentylpyrazol-3-yl)-2-thienyl]phenyl]-(3-hydroxy-1-piperidyl)methanone] the same measures were 0.13 µM and above 10 µM.

Source of the values: US10189826B2, “Heterocyclic compounds and methods of use” (Medivation Technologies LLC, priority 2015, dated 2019).
